Results taken from US10568892B2, “Cycloartane tetracyclic triterpenoid compound, preparation method therefor and use thereof” (Hefei Cosource Pharmaceuticals Inc., priority 2016, dated 2020).

System: ventricular papillary muscle cell of guinea pig
Experiment: Action potential of the ventricular papillary muscle cell of guinea pig (electrophysiological recording)
Type: cell-based
Details: screening stage; for percent change in action potential duration at 0.0005 µM / percent change in action potential duration at 0.005 µM / percent change in action potential duration at 0.05 µM: Cavia porcellus, 20 min, read-out: APD, Change rate (%); for APD, Post-administration: about 20 min perfusion; for Effect on the APD value of the action potential of the papillary muscle (in words): Table 3 summary
Procedure: Method: One guinea pig was taken to violently hit the back of the brain such that it fainted. The common carotid artery was cut off for bleeding to kill the guinea pig. The chest was incised to expose the heart, and the ventricle was cut open along the interventricular septum to expose the lumen of the left ventricle. The papillary muscles were quickly taken out and placed in a Kreb's solution saturated with O2 (mixed gas of 95% O2 and 5% CO2) at 0° C. After the microscopic dressing, the papillary muscle specimen was fixed with a stainless steel needle on the silicone rubber at the bottom of the perfusion bath, and perfused with the oxygen-saturated Kreb's solution. The relevant parameters for perfusion: the temperature was 37±0.5° C., and the flow rate was 4 mL/min.
Cellular action potentials were recorded using a conventional electrophysiological method. The glass electrode filled with 3M KCl saturated solution and having a tip resistance of 15-30 MΩ was fixed on the microelectrode manipulator MP-2. The glass electrode was gently inserted into the superficial layer of the prepared papillary muscle specimen using a microelectrode pusher. The electrode was adjusted to provide the predetermined bioelectrical stimulation with the triple-channel SEN-7203 electronic stimulator and SS-202 J isolator. The bioelectrical signal was amplified by the MEZ-8301 amplifier and then input to the computerized electrophysiological recording and analysis system Powerlab 4/25. Subsequently, the relevant parameters of the action potential for the ventricular papillary muscle were analyzed through the analysis system. The relevant parameters for electrical stimulation: 30 ms latency, 7 ms wavewidth, 1 Hz frequency, 52.1 my stimulation intensity.
In the compound screening test stage, after the ventricular papillary muscle specimen of the guinea pig was fixed, it was first perfused with a normal Kreb's solution for about 85 minutes for stabilization, and the relevant parameters of the cellular action potential before administration were recorded at about 80 min after the start of perfusion. The three-limb tube was used to convert the perfusates containing the title compounds. The title compounds were continuously perfused for about 25 min successively with low (0.0005 μM), medium (0.005 μM), and high (0.05 μM) concentrations, respectively. At about 20 min after the start of drug perfusions at different concentrations, the relevant parameters of the action potentials for the ventricular papillary muscle of guinea pig were observed and recorded, respectively. The normal Kreb's solution was used to perfuse and elute for about 25 min during the intervals between drug perfusions at different concentrations.
The experiment was divided into the following five groups with 6 animals in each group: a vehicle control group, a 369 low dose (0.0005 μM) group, a 369 medium dose (0.005 μM) group, a 369 high dose (0.05 μM) group, and an amiodarone (10 μM) positive control group. After the ventricular papillary muscle specimen of the guinea pig was fixed, it was first perfused with a normal Kreb's solution for about 85 minutes for stabilization, and the relevant parameters of the cellular action potential before administration were recorded at about 80 min after the start of perfusion. According to groups, the three-limb tube was configured to convert the perfusates containing the vehicle, positive control, or Compound 369 at the corresponding concentrations to continuously perfuse for about 25 min. At about 20 min after the start of the perfusions, the relevant parameters of the action potentials for the ventricular papillary muscle of guinea pig were observed and recorded.

Row | Compound | percent change in action potential duration at 0.0005 µM (0.0005 μM) [%] | percent change in action potential duration at 0.005 µM (0.005 μM) [%] | percent change in action potential duration at 0.05 µM (0.05 μM) [%] | APD, Post-administration (0.0005 μM) | APD, Post-administration (0.005 μM) | APD, Post-administration (0.05 μM) | Effect on the APD value of the action potential of the papillary muscle (in words)
1 | CN[C@H]1CC[C@]23C[C@]24CC[C@]2(C)C(/C(C)=N\OC)=CC[C@@]2(C)[C@@H]4CC[C@H]3C1(C)C [Compound 398, (3β,5α)-4,4,14-trimethyl-3-(methylamino)-20-methoxyimino-9,19-cyclopregnan-16-ene] | -0.86 | 6.63 | 9.46 | 0.0695 | 0.771 | 0.764 | 
2 | CC(=O)C1=CC[C@@]2(C)[C@@H]3CC[C@H]4C(C)(C)[C@@H](N(C)C)CC[C@@]45C[C@@]35CC[C@]12C [Compound 383, (3β,5α)-4,4,14-trimethyl-3-(dimethylamino)-9,19-cyclopregnan-16-en-20-one] | 16.3 | 29 |  | 0.0943 | 0.1024 |  | a certain degree of prolonged effects
3 | CN[C@H]1CC[C@]23C[C@]24CC[C@]2(C)C(/C(C)=N\O)=CC[C@@]2(C)[C@@H]4CC[C@H]3C1(C)C [Compound 384, (3β,5α)-4,4,14-trimethyl-3-(methylamino)-9,19-cyclopregnan-16-en-20-one oxime] | 21.2 | 38.6 | 41.3 | 0.0890 | 0.0988 | 0.1047 | a certain degree of prolonged effects
4 | CN[C@H]1CC[C@]23C[C@]24CC[C@]2(C)C(C(=O)COC(=O)c5ccccc5)=CC[C@@]2(C)[C@@H]4CC[C@H]3C1(C)C [Compound 489, (3β,5α)-4,4,14-trimethyl-3-(methylamino)-21-(benzoyloxy)-9,19-cyclopregnan-16-en-20-one] | -2.09 | 1.85 | 9.63 | 0.0750 | 0.0771 | 0.820 | 
5 | CN[C@H]1CC[C@]23C[C@]24CC[C@]2(C)C(C(=O)COC(=O)c5ccccc5C(=O)O)=CC[C@@]2(C)[C@@H]4CC[C@H]3C1(C)C.Cl [Compound 570, (3β,5α)-4,4,14-trimethyl-3-(methylamino)-21-(2-carboxybenzoyloxy)-9,19-cyclopregnan-16-en-20-one hydrochloride] | 12.3 | 21.8 | 30.5 | 0.0813 | 0.0850 | 0.928 | a certain degree of prolonged effects
6 | CN(C)[C@H]1CC[C@]23C[C@]24CC[C@]2(C)C(C(=O)CO)=CC[C@@]2(C)[C@@H]4CC[C@H]3C1(C)C [Compound 399a, (3β,5α)-4,4,14-trimethyl-21-hydroxy-3-(dimethylamino)-9,19-cyclopregnan-16-en-20-one] | 24.4 | 28.5 | 38.4 | 0.0960 | 0.1010 | 0.1103 | a certain degree of prolonged effects
7 | CC(=O)C1=CC[C@@]2(C)[C@@H]3CC[C@H]4C(C)(C)[C@@H](N(C)C5CC5)CC[C@@]45C[C@@]35CC[C@]12C [Compound 409, (3β,5α)-4,4,14-trimethyl-3-(methylcyclopropylamino)-9,19-cyclopregnan-16-en-20-one] | 1.84 | 3.25 | 6.07 | 0.0773 | 0.0762 | 0.0786 | 
8 | CN[C@H]1CC[C@]23C[C@]24CC[C@]2(C)C(C(=O)COC(C)=O)=CC[C@@]2(C)[C@@H]4CC[C@H]3C1(C)C [Compound 427, (3β,5α)-4,4,14-trimethyl-21-acetoxy-3-(methylamino)-9,19-cyclopregnan-16-en-20-one] | 18.2 | 20.6 | 42.9 | 0.0903 | 0.0929 | 0.1073 | a certain degree of prolonged effects
9 | CN[C@H]1CC[C@]23C[C@]24CC[C@]2(C)C(C(=O)COC(=O)CCC(=O)O)=CC[C@@]2(C)[C@@H]4CC[C@H]3C1(C)C.Cl [Compound 522, (3β,5α)-4,4,14-trimethyl-3-(methylamino)-21-(3-carboxypropionyloxy)-9,19-cyclopregnan-16-en-20-one hydrochloride] | 2.87 | 27.2 | 36 | 0.0824 | 0.0996 | 0.1102 | a certain degree of prolonged effects
10 | CN[C@H]1CC[C@]23C[C@]24CC[C@]2(C)C(C(=O)CO)=CC[C@@]2(C)[C@@H]4CC[C@H]3C1(C)C [Compound 385, (3β,5α)-4,4,14-trimethyl-21-hydroxy-3-(methylamino)-9,19-cyclopregnan-16-en-20-one] | 16.4 | 27.4 | 40.1 | 0.0796 | 0.0893 | 0.975 | a certain degree of prolonged effects
11 | CN[C@H]1CC[C@]23C[C@]24CC[C@]2(C)C(C(C)=O)=C(C)C[C@@]2(C)[C@@H]4CC[C@H]3C1(C)C [Compound 383a, (3β,5α)-4,4,14,16-tetramethyl-3-(methylamino)-9,19-cyclopregnan-16-en-20-one] | 4.02 | 33 | 30 | 0.0751 | 0.0943 | 0.0948 | a certain degree of prolonged effects
12 | CCN(C)[C@H]1CC[C@]23C[C@]24CC[C@]2(C)C(C(C)=O)=CC[C@@]2(C)[C@@H]4CC[C@H]3C1(C)C [Compound 397, (3β,5α)-4,4,14-trimethyl-3-(methylethylamino)-9,19-cyclopregnan-16-en-20-one] | 7.68 | -3 | 11.8 | 0.0785 | 0.0711 | 0.0841 | 
13 | CN[C@H]1CC[C@]23C[C@]24CC[C@]2(C)C(C(C)=O)=C(F)C[C@@]2(C)[C@@H]4CC[C@H]3C1(C)C [Compound 387, (3β,5α)-4,4,14-trimethyl-16-fluoro-3-(methylamino)-9,19-cyclopregnan-16-en-20-one] | 8.49 | 19.8 | 24.2 | 0.0869 | 0.0944 | 0.0985 | a certain degree of prolonged effects
